# Assays:
# Format in all cases: in vivo
# wild type soybean = assay: Greenhouse postemergence test of ALS-inhibiting herbicides, wild type soybean
# Experimental: (§1) Soybean lines having wild type als1 & 2 genes, the Als1 mutation, the Als2 mutation, or both the Als1 and Als2 mutations were evaluated for their response to various herbicides. Two seeds from each line were planted into 4-inch pots containing Redi-Earth potting mix (Sun Gro Horticulture Canada Ltd. 52130 RR65, Seba Beach, Alberta TOE 2B0), with two replications planted for each treatment. Pots were placed in flats at 15 pots/flat, and the resulting plants were grown in a greenhouse environment supplemented with lighting (16 hr photoperiod) for the duration of the test. Selected herbicides representing the mode of action that inhibits the acetolactate synthase enzyme, also known as the acetohydroxyacid synthase enzyme, were applied postemergence to soybean when soybean plants were at the V2 growth stage, which is the stage at which the first two trifoliolate leaves were expanded.
# (§2) Eleven active ingredients representing the five chemical families with herbicidal activity on the acetolactate synthase enzyme were tested. These herbicides can cause a phytotoxic response in wild type soybean plants. The five chemical families tested were sulfonylaminocarbonyltriazolinone (also known as triazolinone), imidazolinone, sulfonylurea, pyrimidinylthiobenzoate, and triazolopyrimidine. Application rates ranged from 0.5 times to eight times the currently labeled application rate for each active ingredient with spray application volume at 30 gallons/acre. The application rates tested were 0.5×, 1×, 2×, 4× and 8× the label rate for each herbicide. Herbicidal active ingredients were applied as formulated materials dispersed in water containing 0.25% nonionic surfactant (Trend® 90).
# (§3) The test was evaluated by visually scoring plant phenotype 14 days after the herbicides were applied. Controls consisted of soybean plants of the same variety that received no herbicide treatments for each of all the varieties tested. Soybean response was recorded on a zero to 100 visual scale in which zero is no phytotoxic response and 100 is plant death fourteen days after the herbicides were applied. Soybean response (percent phytotoxicity) to postemergence applications of herbicides inhibiting the acetolactate synthase enzyme test results are shown in Table 1.
# [1] = system: soybean having the Als1 mutation; assay: Greenhouse postemergence test of ALS-inhibiting herbicides, soybean with Als1 mutation; conditions: for Avg response (% phytotoxicity), Trait Als1: Table 2; for EC10, Als1: rate of herbicide estimated to cause 10% phytotoxic response, loglogistic fit
# Experimental: as §1, §2, §3
# (§4) Results in Table 1 were evaluated using the isobole method for analyzing interactions. […] Here the biologically active agents that are being assessed for interaction (synergy) are gene mutations in soybean. The effectiveness of the genes in providing improved tolerance to ALS-inhibiting herbicides was assessed by applying increasing doses of herbicides to each soybean line with its mutation(s).
# (§5) An isobole reduces a dose response surface in three dimensional space to a two dimensional plot by fixing a defined response level (e.g., 50% response). The isobole plot is a graph in the Cartesian plane with a straight line connecting the isoeffective rates of the individual components of the combination. This straight line represents expected responses for zero interactive combinations. The isoeffective rate used to create the isobole is often the EC50, the rate estimated to elicit 50% response, but other ECx values can be used. Since the isobole method is based on the potency of the components of the combination, an experimental design testing a range of rates expected to elicit the full range of responses (e.g., 0 to maximum response) is best. (Ferry et al. (2005) 2005 Conference on Applied Statistics in Agriculture Proceedings pp 33-50, Manhattan, Kans., Kansas State Univ.; Green and Streibig (1993) Herbicide Mixtures, pp 117-134 in Herbicide Bioassays, Streibig and Hudsk Eds, CRC, Boca Raton, Fla.).
# (§6) Loglogistic dose response curves were fit to percent phytotoxicity response data using log 10 of dose (McCullagh and Nelder (1989) Generalized Linear Models, Chapman & Hall, London). Curves were fit using the logit link with normal errors. […]
# [2] = system: soybean having the Als2 mutation; assay: Greenhouse postemergence test of ALS-inhibiting herbicides, soybean with Als2 mutation; conditions: for Avg response (% phytotoxicity), Trait Als2: Table 2; for EC10, Als2: rate of herbicide estimated to cause 10% phytotoxic response, loglogistic fit
# Experimental: as §1, §2, §3, §4, §5, §6
# [3] = system: soybean having both the Als1 and Als2 mutations; assay: Greenhouse postemergence test of ALS-inhibiting herbicides and isobole analysis, soybean with Als1 and Als2 mutations; conditions: for Avg response (% phytotoxicity), Trait Als1 + Als2: Table 2; for EC10, Als1 + Als2: rate of herbicide estimated to cause 10% phytotoxic response, loglogistic fit
# Experimental: as §1, §2, §3, §4, §5, §6
# [4] = 4.38 g ai/ha postemergence at V2, scored 14 days after application
# [5] = 8.75 g ai/ha postemergence at V2, scored 14 days after application
# [6] = 17.5 g ai/ha postemergence at V2, scored 14 days after application
# [7] = 35 g ai/ha postemergence at V2, scored 14 days after application
# [8] = 70 g ai/ha postemergence at V2, scored 14 days after application
# [9] = rates 0.5x to 8x the label rate
smiles,measurement,setting,value
Cc1cc(C)nc(NC(=O)NS(=O)(=O)c2ccccc2C(=O)O)n1 [Sulfometuron],"Soybean response (percent phytotoxicity), Wild type",wild type soybean; [4],60%
same,"Soybean response (percent phytotoxicity), Wild type",wild type soybean; [5],95%
same,"Soybean response (percent phytotoxicity), Wild type",wild type soybean; [6],98%
same,"Soybean response (percent phytotoxicity), Wild type",wild type soybean; [7],98%
same,"Soybean response (percent phytotoxicity), Wild type",wild type soybean; [8],98%
same,"Soybean response (percent phytotoxicity), Als1",[1]; [4],0%
same,"Avg response (% phytotoxicity), Trait Als1",[1]; 4.38 g ai/ha,0%
same,"Soybean response (percent phytotoxicity), Als1",[1]; [5],0%
same,"Avg response (% phytotoxicity), Trait Als1",[1]; 8.75 g ai/ha,0%
same,"Soybean response (percent phytotoxicity), Als1",[1]; [6],10%
same,"Avg response (% phytotoxicity), Trait Als1",[1]; 17.5 g ai/ha,10%
same,"Soybean response (percent phytotoxicity), Als1",[1]; [7],55%
same,"Avg response (% phytotoxicity), Trait Als1",[1]; 35 g ai/ha,55%
same,"Soybean response (percent phytotoxicity), Als1",[1]; [8],80%
same,"Avg response (% phytotoxicity), Trait Als1",[1]; 70 g ai/ha,80%
same,"EC10, Als1",[1],14.93 g ai/ha
same,"phytotoxicity (in words), soybean containing only the Als1 gene",[1]; the higher doses,substantial phytotoxicity
same,"Soybean response (percent phytotoxicity), Als2",[2]; [4],35%
same,"Avg response (% phytotoxicity), Trait Als2",[2]; 4.38 g ai/ha,35%
same,"Soybean response (percent phytotoxicity), Als2",[2]; [5],40%
same,"Avg response (% phytotoxicity), Trait Als2",[2]; 8.75 g ai/ha,40%
same,"Soybean response (percent phytotoxicity), Als2",[2]; [6],70%
same,"Avg response (% phytotoxicity), Trait Als2",[2]; 17.5 g ai/ha,70%
same,"Soybean response (percent phytotoxicity), Als2",[2]; [7],75%
same,"Avg response (% phytotoxicity), Trait Als2",[2]; 35 g ai/ha,75%
same,"Soybean response (percent phytotoxicity), Als2",[2]; [8],80%
same,"Avg response (% phytotoxicity), Trait Als2",[2]; 70 g ai/ha,80%
same,"EC10, Als2",[2],0.76 g ai/ha
same,"phytotoxicity (in words), soybean containing only the Als2 gene",[2]; the higher doses,substantial phytotoxicity
same,"Soybean response (percent phytotoxicity), Als1 + Als2",[3]; [4],0%
same,"Avg response (% phytotoxicity), Trait Als1 + Als2",[3]; 4.38 g ai/ha,0%
same,"Soybean response (percent phytotoxicity), Als1 + Als2",[3]; [5],0%
same,"Avg response (% phytotoxicity), Trait Als1 + Als2",[3]; 8.75 g ai/ha,0%
same,"Soybean response (percent phytotoxicity), Als1 + Als2",[3]; [6],0%
same,"Avg response (% phytotoxicity), Trait Als1 + Als2",[3]; 17.5 g ai/ha,0%
same,"Soybean response (percent phytotoxicity), Als1 + Als2",[3]; [7],10%
same,"Avg response (% phytotoxicity), Trait Als1 + Als2",[3]; 35 g ai/ha,10%
same,"Soybean response (percent phytotoxicity), Als1 + Als2",[3]; [8],5%
same,"Avg response (% phytotoxicity), Trait Als1 + Als2",[3]; 70 g ai/ha,5%
same,"EC10, Als1 + Als2",[3],114.81 g ai/ha
same,"tolerance (in words), soybean containing both the Als1 and the Als2 genes",[3]; the higher doses,extremely tolerant
COc1nc(C)nc(NC(=O)NS(=O)(=O)c2ccsc2C(=O)O)n1 [Thifensulfuron],"Soybean response (percent phytotoxicity), Wild type",wild type soybean; [4],0%
same,"Soybean response (percent phytotoxicity), Wild type",wild type soybean; [5],10%
same,"Soybean response (percent phytotoxicity), Wild type",wild type soybean; [6],10%
same,"Soybean response (percent phytotoxicity), Wild type",wild type soybean; [7],25%
same,"Soybean response (percent phytotoxicity), Wild type",wild type soybean; [8],45%
same,"Soybean response (percent phytotoxicity), Als1",[1]; [4],0%
same,"Soybean response (percent phytotoxicity), Als1",[1]; [5],0%
same,"Soybean response (percent phytotoxicity), Als1",[1]; [6],0%
same,"Soybean response (percent phytotoxicity), Als1",[1]; [7],0%
same,"Soybean response (percent phytotoxicity), Als1",[1]; [8],0%
same,"phytotoxic response (in words), Als1",[1]; [9],did not cause any phytotoxic response
same,"Soybean response (percent phytotoxicity), Als2",[2]; [4],0%
same,"Soybean response (percent phytotoxicity), Als2",[2]; [5],0%
same,"Soybean response (percent phytotoxicity), Als2",[2]; [6],0%
same,"Soybean response (percent phytotoxicity), Als2",[2]; [7],0%
same,"Soybean response (percent phytotoxicity), Als2",[2]; [8],0%
same,"phytotoxic response (in words), Als2",[2]; [9],did not cause any phytotoxic response
same,"Soybean response (percent phytotoxicity), Als1 + Als2",[3]; [4],0%
same,"Soybean response (percent phytotoxicity), Als1 + Als2",[3]; [5],0%
same,"Soybean response (percent phytotoxicity), Als1 + Als2",[3]; [6],0%
same,"Soybean response (percent phytotoxicity), Als1 + Als2",[3]; [7],0%
same,"Soybean response (percent phytotoxicity), Als1 + Als2",[3]; [8],0%
same,"phytotoxic response (in words), Als1+Als2",[3]; [9],did not cause any phytotoxic response
COc1nc(C)nc(N(C)C(=O)NS(=O)(=O)c2ccccc2C(=O)O)n1 [Tribenuron],"Soybean response (percent phytotoxicity), Wild type",wild type soybean; [4],10%
same,"Soybean response (percent phytotoxicity), Wild type",wild type soybean; [5],70%
same,"Soybean response (percent phytotoxicity), Wild type",wild type soybean; [6],93%
same,"Soybean response (percent phytotoxicity), Wild type",wild type soybean; [7],98%
same,"Soybean response (percent phytotoxicity), Wild type",wild type soybean; [8],98%
same,"Soybean response (percent phytotoxicity), Als1",[1]; [4],0%
same,"Avg response (% phytotoxicity), Trait Als1",[1]; 4.38 g ai/ha,0%
same,"Soybean response (percent phytotoxicity), Als1",[1]; [5],0%
same,"Avg response (% phytotoxicity), Trait Als1",[1]; 8.75 g ai/ha,0%
same,"Soybean response (percent phytotoxicity), Als1",[1]; [6],0%
same,"Avg response (% phytotoxicity), Trait Als1",[1]; 17.5 g ai/ha,0%
same,"Soybean response (percent phytotoxicity), Als1",[1]; [7],0%
same,"Avg response (% phytotoxicity), Trait Als1",[1]; 35 g ai/ha,0%
same,"Soybean response (percent phytotoxicity), Als1",[1]; [8],10%
same,"Avg response (% phytotoxicity), Trait Als1",[1]; 70 g ai/ha,10%
same,"EC10, Als1",[1],70 g ai/ha
same,"Soybean response (percent phytotoxicity), Als2",[2]; [4],0%
same,"Avg response (% phytotoxicity), Trait Als2",[2]; 4.38 g ai/ha,0%
same,"Soybean response (percent phytotoxicity), Als2",[2]; [5],15%
same,"Avg response (% phytotoxicity), Trait Als2",[2]; 8.75 g ai/ha,15%
same,"Soybean response (percent phytotoxicity), Als2",[2]; [6],40%
same,"Avg response (% phytotoxicity), Trait Als2",[2]; 17.5 g ai/ha,40%
same,"Soybean response (percent phytotoxicity), Als2",[2]; [7],60%
same,"Avg response (% phytotoxicity), Trait Als2",[2]; 35 g ai/ha,60%
same,"Soybean response (percent phytotoxicity), Als2",[2]; [8],65%
same,"Avg response (% phytotoxicity), Trait Als2",[2]; 70 g ai/ha,65%
same,"EC10, Als2",[2],4.96 g ai/ha
same,"Soybean response (percent phytotoxicity), Als1 + Als2",[3]; [4],0%
same,"Avg response (% phytotoxicity), Trait Als1 + Als2",[3]; 4.38 g ai/ha,0%
same,"Soybean response (percent phytotoxicity), Als1 + Als2",[3]; [5],0%
same,"Avg response (% phytotoxicity), Trait Als1 + Als2",[3]; 8.75 g ai/ha,0%
same,"Soybean response (percent phytotoxicity), Als1 + Als2",[3]; [6],0%
same,"Avg response (% phytotoxicity), Trait Als1 + Als2",[3]; 17.5 g ai/ha,0%
same,"Soybean response (percent phytotoxicity), Als1 + Als2",[3]; [7],0%
same,"Avg response (% phytotoxicity), Trait Als1 + Als2",[3]; 35 g ai/ha,0%
same,"Soybean response (percent phytotoxicity), Als1 + Als2",[3]; [8],0%
same,"Avg response (% phytotoxicity), Trait Als1 + Als2",[3]; 70 g ai/ha,0%
same,"EC10, Als1 + Als2",[3],>70 g ai/ha
